The results in this text go back to patent US20100273833A1, “2-SULFINYL- AND 2-SULFONYL-SUBSTITUTED IMIDAZOLE DERIVATIVES AND THEIR USE AS CYTOKINE INHIBITORS” (priority 2005, published 2010).

Data set [1] in a line: In vitro metabolism, incubation with rat liver microsomes. In kind it is in vitro ADME. Particulars: phosphate buffer pH 7.4, NADPH, 37° C., HPLC peak areas. The protocol:
The test substances were incubated in standard experiments with rat liver microsomes (phosphate buffer with pH 7.4, NADPH, 37° C.). The biotransformations were stopped after 0, 15, 30 and 60 min by adding acetonitrile and were centrifuged, and the protein-free supernatant was analyzed by HPLC. Resulting metabolites were approximately quantified via the peak areas. The result of the biotransformation of Example 12 and of the corresponding sulfanyl compound, which is representative in terms of the sulfinyl/sulfanyl substitution comparison, is described by way of example. The sulfanyl compound was rapidly converted into a number of metabolites and, after 30 min, less than 1% of the pharmacologically active starting substance remained. Under identical experimental conditions, about 70% of the initial amount of Example 12 were still present after 30 min, and more than 50% were still present after 60 min.
(Liver microsomes are vesicles of endoplasmic reticulum, rich in cytochrome P450 enzymes.)

The next data set in a line: Solubility in water. Format: physicochemical.

The structures appear in SMILES notation. In brackets after ≈: the same amount, converted by molar mass. Where a name gives a salt, the structure may show the parent alone.

In general, melting point refers to the temperature of the solid-liquid transition. Molecule `Fc1ccc(-c2nc3n(c2-c2ccnc(Nc4ccccc4)c2)CCS3)cc1` [Example 34, {4-[6-(4-Fluorophenyl)-2,3-dihydro-imidazo[2,1-b]thiazol-5-yl]-pyridin-2-yl}-phenyl-amine] came in with a melting point of 298.7 °C.

Turning to `COCCn1c([S+](C)[O-])nc(-c2ccc(F)cc2)c1-c1ccnc(NC(C)C)c1` (stereo not drawn) [Example 12, {4-[5-(4-Fluorophenyl)-2-methanesulfinyl-3-(2-methoxyethyl)-3H-imidazol-4-yl]pyridin-2-yl}isopropylamine], the “initial amount of starting substance still present after 30 min” value in data set [1] (30 min) is reported as “about 70%”. The “initial amount still present after 60 min” value in data set [1] (60 min) was “more than 50%”. In turn, `CC(=O)Nc1cc(-c2c(-c3ccc(F)cc3)nc([S+](C)[O-])n2C)ccn1` (stereo not drawn) [Example 3 hydrochloride, N-{4-[5-(4-Fluorophenyl)-2-methanesulfinyl-3-methyl-3H-imidazol-4-yl]pyridin-2-yl}acetamide] displayed a solubility in water in “Solubility in water” of 1120 µg/mL. Same read-out and setting: with `CC(=O)Nc1cc(-c2c(-c3ccc(F)cc3)nc([S+](C)[O-])n2C)ccn1` (stereo not drawn) [Example 3 sulfate, N-{4-[5-(4-Fluorophenyl)-2-methanesulfinyl-3-methyl-3H-imidazol-4-yl]pyridin-2-yl}acetamide] the figure was 310 µg/mL; with `CC(=O)Nc1cc(-c2c(-c3ccc(F)cc3)nc([S+](C)[O-])n2C)ccn1` (stereo not drawn) [Example 3 hydrobromide, N-{4-[5-(4-Fluorophenyl)-2-methanesulfinyl-3-methyl-3H-imidazol-4-yl]pyridin-2-yl}acetamide], 1050 µg/mL; with `CC(=O)Nc1cc(-c2c(-c3ccc(F)cc3)nc([S+](C)[O-])n2C)ccn1` (stereo not drawn) [Example 3, N-{4-[5-(4-Fluorophenyl)-2-methanesulfinyl-3-methyl-3H-imidazol-4-yl]pyridin-2-yl}acetamide], 70 µg/mL (≈ 188 µM). On the same count and under the same terms, as for `CC(=O)Nc1cc(-c2c(-c3ccc(F)cc3)nc([S+](C)[O-])n2C)ccn1` (stereo not drawn) [Example 3 methane sulfonate, N-{4-[5-(4-Fluorophenyl)-2-methanesulfinyl-3-methyl-3H-imidazol-4-yl]pyridin-2-yl}acetamide], the figure is 890 µg/mL. In turn, `CC(=O)Nc1cc(-c2c(-c3ccc(F)cc3)nc([S+](C)[O-])n2C)ccn1` (stereo not drawn) [Example 3 hydrogensulfate, N-{4-[5-(4-Fluorophenyl)-2-methanesulfinyl-3-methyl-3H-imidazol-4-yl]pyridin-2-yl}acetamide] came in with a solubility in water in “Solubility in water” of 390 µg/mL (≈ 1050 µM).
